# In US11944092B2, “Compositions for controlling phytoplankton contamination” (BLUEGREEN WATER TECHNOLOGIES LTD., priority 2019, dated 2024):
# Experiments:
# Microcystis [1] = conditions: cited from earlier work
# Microcystis [2] = conditions: in vivo
# Planktothrix agardhii [3] = conditions: equivalent of 2.5 mg/L in 1140 L, 9500 cm^2
# Planktothrix agardhii [4] = conditions: cited from earlier work
# [5] = Buoyancy by weighing-pan set-up (FIG. 2); format: physicochemical
# Text: FIG. 2 schematically illustrates an experimental set-up for testing the buoyancy of the herein disclosed compositions, including (1) a balance; (2) a measuring pod with an aperture; (3) an underneath hook to measure weight; (4) a beaker filled with water simulating an aquatic system; (5) a weighing-pan.
# In order to test the buoyancy of the herein disclosed compositions, an experimental set-up, schematically illustrated in FIG. 2, was applied. In this set-up, a laboratory balance 1 (0-2,000±0.1 g) was positioned to measure the weight of a composition placed on a weighing-pan 5 immersed in a beaker filled with water 4. If the composition is non-buoyant (AI without the coating material) an increase in weight is anticipated (‘negative control’). Oppositely, if the composition is buoyant, the weight is expected to remain essentially unchanged.
# [6] = Buoyancy of sodium percarbonate in 15 ml vials; format: physicochemical; conditions: 5 grams, FIG. 5
# [7] = test system: algal bloom (cyanobacterial biomass); assay: Seasonal treatment of algal bloom at ~1.04 km^2 irrigation pond; format: in vivo
# Method: As detailed in FIG. 9, biomass and total copper concentrations were measured during the first two days to assess efficacy and minimal required AI concentrations. Cyanobacterial biomass was measured using a YSI Exo-3 probe that was supplied with a GPS. […] Water samples for total copper concentrations, as well as estimation of particle time travel on the water, as well as final coverage, was done with a kayak and by using a laser distance/range measurer. Total copper concentrations were measured with a YSI 9300 photometer in accordance with manufacturer instructions.
# [8] = Sedimentation analysis in 10-liter cylinders with sediment; format: physicochemical; conditions: 10-liter cylinder, after one hour, FIG. 6
# Method: Two 10-liter cylinders were filled with water and supplemented with sediment. To one cylinder, granules of copper sulfate pentahydrate (mimicking standard treatment) were added, while a buoyant copper-based composition was added to the other cylinder.
# [9] = Buoyancy and resurfacing of coated copper sulfate compositions in water (vials, glasses; visual); format: physicochemical; conditions: granular copper sulfate with different % (w/w) coating placed in water, FIG. 1
molecule,measurement,setting,value
"OO [H2O2, hydrogen peroxide]",H2O2 dose at which abundance of Microcystis decreased,Microcystis [1]; 150 L mesocosm,≥ 4 mg/L
same,cell density of Microcystis,Microcystis [1]; H2O2 dose 2 mg/L,did not decrease
same,time to reappearance of high Microcystis cell density,Microcystis [1]; H2O2 dose of 2 mg/L,11 days
same,H2O2 amount per surface area at which Microcystis decreased,Microcystis [2],≥ 2.44 gr/m^2
same,lowest effective H2O2 amount per surface area,Planktothrix agardhii [3],2.85 gr/m^2
same,lowest H2O2 concentration that sufficed to significantly reduce the P. agardhii population,"Planktothrix agardhii [4]; Plexiglas containers, 2*10^6 cells/mL",2.5 mg/L
same,photosynthetic performance and cell counts of zooplankton population,Planktothrix agardhii [4]; at 2.5 mg/L H2O2,severely reduced
same,time until cyanobacteria population started to recover,Planktothrix agardhii [4]; natural water body,6-7 weeks
"O=c1nc([O-])n(Cl)c(=O)n1Cl.[Na+] [un-encapsulated NADCC, sodium dichloroisocyanurate]",weight increase on weighing-pan,[5]; 9.5 grams placed on the weighing-pan in water,~5.3 g
"O=C([O-])[O-].O=C([O-])[O-].OO.OO.OO.[Na+].[Na+].[Na+].[Na+] [uncoated sodium percarbonate, sodium percarbonate]",buoyancy in water,[6],sank immediately
copper sulfate pentahydrate,average chlorophyll-a concentration,"[7]; 2015, 6 aerial applications, total of 8,000 kg",100-200 μg chlorophyll-a/L
same,average cyanobacterial concentration (chlorophyll-a),"[7]; 2016, 7 aerial applications of 2000 kg",60 to 80 µg/L
same,behaviour in water column with sediment,[8],immediately sank into the sediment
same,weight increase on weighing-pan,"[5]; samples of 100 grams, set-up of FIG. 2",50%±3%
same,"buoyancy in water (floating, sinking, resurfacing)",[9]; listed as non-coated active ingredient (0.0% (w/w)),sank immediately to the bottom
same,"buoyancy in water (floating, sinking, resurfacing)",[9]; listed as raw copper salt (“0% coating”),sunk immediately after dispersion
